From ChEMBL document CHEMBL1142808, “O-Methylglucogalloyl esters: synthesis and evaluation of their antimycotic activity” (2005) come the findings set out here.

≈ marks a conversion by molar mass, not a printed value.

Type in all cases: functional
For experiment [1], the system named is Nakaseomyces glabratus. As to the kind of experiment: Minimum inhibitory concentration (mixture of alpha and beta) against Candida glabrata DBVPG 3828.
For experiment [2], the system named is Candida albicans. As to the kind of experiment: Minimum inhibitory concentration (mixture of alpha and beta) against Candida albicans DBVPG 6133.
Experiment [3] is described as follows: Minimum inhibitory concentration (mixture of alpha and beta) against Issatchenkia orientalis DBVPG 6782. The conditions noted are these: Pichia kudriavzevii.
The subject of experiment [4] is Candida albicans. Description: Minimum inhibitory concentration in association with methyl gallate (36.8 µg/mL) against Candida albicans DBVPG 6133.
The subject of experiment [5] is Nakaseomyces glabratus. As to the kind of experiment: Minimum inhibitory concentration in association with mixture of alpha/beta O-methylgluco-2,3-digalloyl ester (49.8 µg/mL) against Candida glabrata DBVPG 3828.
The subject of experiment [6] is Nakaseomyces glabratus. As to the kind of experiment: Minimum inhibitory concentration against Candida glabrata DBVPG 3828.
Experiment [7] can be described thus: Minimum inhibitory concentration against Issatchenkia orientalis DBVPG 6782. The note with it: Pichia kudriavzevii.
The subject of experiment [8] is Candida albicans. Description: Minimum inhibitory concentration in association with mixture of alpha/beta O-methylgluco-2,3-digalloyl ester (49.8 µg/mL) against Candida albicans DBVPG 6133.
The test system of experiment [9] is Candida albicans. Description: Minimum inhibitory concentration in association with gallic acid (34.0 µg/mL) against Candida albicans DBVPG 6133.
Experiment [10] relates to Nakaseomyces glabratus. As to the kind of experiment: Minimum inhibitory concentration in association with methyl gallate (36.8 µg/mL) against Candida glabrata DBVPG 3828.
A short description of experiment [11]: Minimum inhibitory concentration in association with mixture of alpha/beta O-methylgluco-2,3-digalloyl ester (49.8 µg/mL) against Issatchenkia orientalis DBVPG 6782. The note with it: Pichia kudriavzevii.
The subject of experiment [12] is Nakaseomyces glabratus. As to the kind of experiment: Minimum inhibitory concentration in association with gallic acid (34.0 µg/mL) against Candida glabrata DBVPG 3828.
Experiment [13] in a line: Minimum inhibitory concentration in association with gallic acid (34.0 µg/mL) against Issatchenkia orientalis DBVPG 6782. The note with it: Pichia kudriavzevii.
Experiment [14] in a line: Minimum inhibitory concentration in association with methyl gallate (36.8 µg/mL) against Issatchenkia orientalis DBVPG 6782. The conditions noted are these: Pichia kudriavzevii.
The test system of experiment [15] is Candida albicans. Description: Minimum inhibitory concentration against Candida albicans DBVPG 6133.

In general, MIC refers to the least concentration at which growth counts as inhibited. As to `COC1O[C@H](CO)[C@@H](O)[C@H](OC(=O)c2cc(O)c(O)c(O)c2)[C@H]1OC(=O)c1cc(O)c(O)c(O)c1` (stereo not given in full), the MIC was over 4670 µg/mL with Nakaseomyces glabratus [1], 1940 µg/mL (≈ 3890 µM) in the experiment with Candida albicans [2] and over 4670 µg/mL in experiment [3].
As to `C[C@@H]1[C@H](O)[C@@H](C)/C=C/C=C/C=C/C=C/C=C/C=C/C=C/[C@H](O[C@@H]2O[C@H](C)[C@@H](O)[C@H](N)[C@@H]2O)C[C@@H]2O[C@](O)(C[C@@H](O)C[C@@H](O)[C@H](O)CC[C@@H](O)C[C@@H](O)CC(=O)O[C@H]1C)C[C@H](O)[C@H]2C(=O)O` [AMPHOTERICIN B], the MIC with Candida albicans [4] is 0.09 µg/mL (≈ 0.0974 µM); with Nakaseomyces glabratus [5], 0.05 µg/mL (≈ 0.0541 µM); against Nakaseomyces glabratus [6], 1.06 µg/mL (≈ 1.15 µM); in experiment [7], over 100 µg/mL; with Candida albicans [8] it was 0.05 µg/mL (≈ 0.0541 µM); in the experiment on Candida albicans [9] it was 0.09 µg/mL (≈ 0.0974 µM). Further, the MIC in the experiment on Nakaseomyces glabratus [10] came out at 0.09 µg/mL (≈ 0.0974 µM); in [11] it was 2.05 µg/mL (≈ 2.22 µM); against Nakaseomyces glabratus [12] it was 1 µg/mL (≈ 1.08 µM); in [13], 8 µg/mL (≈ 8.66 µM); in [14], 45 µg/mL (≈ 48.7 µM); with Candida albicans [15], 1.06 µg/mL (≈ 1.15 µM).
